Literature values, collected in patent US20230293063A1 (SOMNUS SCIENTIFIC LTD, priority 2020, published 2023).

For `CC(C)c1cccc(C(C)C)c1O` [propofol, 2,6-diisopropylphenol], the “fraction metabolized in the liver” value (Smits, Annaert and Allegaert, 2017) is given as 90% and the “free fraction of the total drug concentration” value (blood) is given as 2%.
